Source: PubChem BioAssay AID504322 (Emory University Molecular Libraries Screening Center, 2011)
Calls of active or inactive are those of the source. The rule behind the calls is not given here.

What follows are molecules tested on CHOP reporter cell assay, percent of control (assay: CHOP reporter inhibitor potency, dose response, cell-based (AID 504322);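 note: CHO cells carrying a CHOP reporter stimulated with tunicamycin to induce ER stress; potency is for inhibition of the stress-induced reporter signal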).

Structure (SMILES)	IC50
C=CCn1c(COc2ccccc2)nnc1SC(C)C(=O)N/N=C/c1cc(Cl)ccc1O (configuration not stated)	9.66 µM (inactive)
Cn1cnc([N+](=O)[O-])c1S(=O)(=O)c1cccc(Cl)c1	8.11 µM (inactive)
Cc1cc(C)c2c(c1)/C(=N/NS(=O)(=O)c1ccc(Br)cc1)CCC2	9.49 µM (inactive)
Nc1cc(Cl)c2nonc2c1[N+](=O)[O-]	5.89 µM (inactive)
CCOc1cc(/C=C2/C(=O)ON=C2C)ccc1OCc1ccccc1F	9.48 µM (inactive)
CC1CCN(C(=O)/C(=C/c2ccccc2Cl)c2ccccc2)CC1	3.83 µM (inactive)
Cc1ccc(C(=O)CC(=O)c2cc(Cl)ccc2O)cc1	5.51 µM (inactive)
CC1CCC(C(C)C)C(OC(=O)COC(=O)c2cc(O)ccc2N)C1 (configuration not stated)	4.09 µM (inactive)
Cc1ccc(/C=N/N2C(=S)SC(C)(C)C2N(O)C(=O)Nc2ccc([N+](=O)[O-])cc2)cc1 (configuration not stated)	2.67 µM (inactive)
C[C@H]1C[C@@H](C)C(=O)[C@@H]([C@H](O)CC2CC(=O)NC(=O)C2)C1	< 0.16 µM (inactive)
Cc1ccc(N=Cc2cc3c(cc2O)OC(N)=C(C#N)C3c2ccccc2)cc1 (configuration not stated)	> 10 µM (inactive)
CC1=NN(c2nc(-c3ccc(C)cc3)cs2)C(=O)C1N=Nc1ccccc1O (configuration not stated)	6.66 µM (inactive)
Cc1nc(SCC(=O)Nc2cc(C)on2)c2c3c(sc2n1)CCCC3	> 10 µM (inactive)
COC(=O)c1ccccc1NC1=C/C(=N\S(=O)(=O)c2cccs2)c2ccccc2C1=O	> 10 µM (inactive)
O=c1cc(-c2c(F)c(F)c(F)c(F)c2F)oc2c(F)c(F)c(F)c(F)c12	3.98 µM
CCN(CCO)c1ncnc2c1sc1nc(C(C)C)c3c(c12)CC(C)(C)OC3	9.63 µM (inactive)
Cc1cc2c(cc1C)CSC(c1ccccc1O)SC2	> 10 µM (inactive)
Cc1ccc(OCC(=O)N2N=C(C(F)(F)F)CC2(O)C(C)(C)C)cc1C (configuration not stated)	5.25 µM (inactive)
S=C(NCCc1ccc(Cl)cc1)Nc1ccc(Cl)cc1Cl	9.93 µM (inactive)
CCOC(=O)c1cnc(-n2nc(C)cc2C)nc1Nc1ccc(O)cc1	1.51 µM
CCCCCCn1c(CN2CCCC(C)C2)nc2c1c(=O)n(C)c(=O)n2C (configuration not stated)	> 10 µM (inactive)
CCCCCc1ccc(OCCOCCn2c[n+](C)c3ccccc32)c(CCCCC)c1	3.52 µM
Cc1cc(-c2n[nH]c(=S)n2/N=C/C(Br)=C/c2ccccc2)n[nH]1	> 10 µM (inactive)
CC(C)CCn1c(=O)c(C(=O)N/N=C/c2cccc(F)c2)c(O)c2ccccc21	2.97 µM

Structure (SMILES)	IC50
CCc1ccc(/C=c2\s/c(=C\C(=O)C(C)(C)C)[nH]c2=O)cc1	9.29 µM (inactive)
CC(C)C[C@H](NC(=O)c1nc[nH]c1C(=O)NCC(=O)OC(C)(C)C)C(=O)OCc1ccccc1	> 10 µM (inactive)
O=C(Nc1cc(N2CCOCC2)ncn1)NC1(C(F)(F)F)Oc2ccc(Cl)cc2O1 (configuration not stated)	> 10 µM (inactive)
O=[N+]([O-])c1c(NCCCO)cc(Sc2nc3ccccc3s2)c2nonc12	> 10 µM (inactive)
O=S(=O)(N/N=C/c1ccc(Cl)cc1)c1ccc(Cc2ncc(C(F)(F)F)cc2Cl)s1	6.37 µM (inactive)
Cc1nn(-c2ccc(C(F)(F)F)cn2)c(C)c1Oc1ccccc1O	5.94 µM (inactive)
O=C(CCl)N(c1ccc(Cl)cc1)c1c[nH]c2ccccc12	9.58 µM (inactive)
Cn1c(=O)[nH]c(=O)c2c1nc([N+](=O)[O-])n2Cc1ccccc1	4.64 µM
CCOC(=O)c1c(-n2c(C)cc(C=C3C(=O)NC(=S)NC3=O)c2C)sc2c1CCCC2	5.85 µM (inactive)
C=CCn1c(O)c(C(CC)=Nc2ccc(N(CC)CC)cc2)c(=O)[nH]c1=O	2.56 µM
Cc1[nH]c2ccccc2c1/C=N/NC(=O)C1CC1(c1ccccc1)c1ccccc1 (configuration not stated)	> 10 µM (inactive)
O=C1c2ccccc2C(=O)C1c1nccc2ccccc12	5.41 µM (inactive)
CN(C)CCCn1c(SCC(=O)Nc2nc(-c3cccc(Br)c3)cs2)nc2ccccc2c1=O	9.51 µM (inactive)
CC1C/C(=C/c2ccccn2)C(=O)/C(=C/c2ccccn2)C1 (configuration not stated)	2.49 µM
CCCCCCn1c(N2CCC(C)CC2)nc2c1c(=O)[nH]c(=O)n2C	5.4 µM (inactive)
Cn1c(-c2cccc(OCc3ccccc3)c2)nc2c1c(=O)[nH]c(=O)n2Cc1ccccc1	> 10 µM (inactive)
CC(C)(C)c1ccc(-c2noc(CCC(N)=O)n2)cc1	< 0.16 µM
Cc1nc2ccccn2c1C(=O)N=Nc1c(O)n(CCC(C)C)c2ccccc12	> 10 µM (inactive)
CC1=C(CO)C(=O)OC([C@@H](C)C2CC[C@H]3C4C[C@H]5O[C@]56[C@@H](O)C=CC(=O)[C@]6(C)C4CC[C@]23C)C1 (some centres not stated)	> 10 µM (inactive)
CC(C)(C)C(=O)c1no[n+]([O-])c1/C(=N/O)C(C)(C)C	7.23 µM (inactive)
COC(=O)[C@]12OC[C@]34C([C@@H](O)[C@@H]1O)[C@]1(C)CC(=O)C(O)=C(C)[C@@H]1C[C@H]3OC(=O)[C@H](O)[C@@H]24 (some centres not stated)	< 0.16 µM
COc1cc(/C=N/NC(=O)Nc2ccccc2)ccc1OCCOc1ccccc1C	9.34 µM (inactive)
Cc1ccc(S(=O)(=O)CC#CCOC(=O)c2ccc([N+](=O)[O-])cc2)cc1	> 10 µM (inactive)
